A word on the TGI: it is the concentration at which net growth stops. A lower TGI goes with greater sensitivity of the cells.

The values below come from PubChem BioAssay (NCI).

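Results reflect a 48-hour exposure of cells in 96-well plates to compound at five concentrations. TGI: total growth inhibition.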 Some results are limits rather than exact numbers.

Common to all, as to experiment: DTP human tumour cell line panel, 48 h
The test system of test [1] is UACC-257 melanoma.
Test [2] has as its system IGROV1 ovarian.
Test [3] has as its system UACC-62 melanoma.
In test [4] the test system is COLO 205 colon.
Test [5] deals with KM12 colon.
For test [6], the system named is OVCAR-4 ovarian.
Test [7] has as its system MCF7 breast.
In test [8] the test system is NCI-H226 lung.
Test [9] deals with HCT-15 colon.
The test system of test [10] is SK-MEL-5 melanoma.
For test [11], the system named is UO-31 renal.
Test [12] deals with NCI-H460 lung.
Test [13] has as its system SK-MEL-28 melanoma.
Test [14] has as its system SN12C renal.
Test [15] deals with T-47D breast.
For test [16], the system named is MOLT-4 leukemia.
In test [17] the test system is A498 renal.
Test [18] concerns HOP-92 NSCLC.
Test [19] has as its system OVCAR-3 ovarian.
Test [20] relates to SK-MEL-2 melanoma.

Consider `CC(C)Oc1ccc(CNC2=NCCO2)c2ccccc12`, for which the concentration for total growth inhibition (TGI) turned out to be 20 µM in test [1]; 27.9 µM in test [2]; 30.6 µM in test [3]; 36.8 µM in test [4]; 34 µM in [5]; 31.1 µM in [6]. Further, the concentration for total growth inhibition (TGI) is 29.6 µM in [7]; 33 µM in test [8]; 29.8 µM in [9]; 26.3 µM in [10]; 18.2 µM in test [11]; 26.7 µM in test [12]. The TGI worked out at 27.6 µM in [13]; 32.2 µM in test [14]; 31.3 µM in test [15]; 19.8 µM in test [16]; 23 µM in test [17].

Turning to `CSCCCNC(=O)c1csc(-c2csc(CCN)n2)n1`, the TGI in test [1], in [2], in test [3], in [4], in test [5] and in test [18] was over 100 µM throughout. Besides, the TGI in test [6], in test [7], in [9], in test [10], in test [11] and in test [12] was over 100 µM throughout. Besides, the TGI in test [19], in test [13], in test [14], in [15] and in test [16] was over 100 µM each time.

As to `O=C(Cc1ccccc1)NNc1nc(NNC(=O)c2ccncc2)nc(Nc2ccccc2)n1`, the TGI in [1], in test [2], in [3], in [4], in test [5] and in [18] was over 10 µM each time. For the same molecule, the TGI in [6], in test [7], in test [9], in test [11], in [12] and in test [13] was over 10 µM in each case. Also, the TGI in [14], in [15] and in test [16] was over 10 µM throughout.

As to `CC1(c2nc3ccccc3[nH]2)CCC(C(N)=O)C(C)(C)O1` (centres undefined), the TGI in [1], in test [2], in test [3], in test [4], in test [5] and in test [18] was over 100 µM each time. The concentration for total growth inhibition (TGI) in [6], in [7], in test [8], in [9], in test [10] and in test [20] was over 100 µM throughout. Moreover, the total growth inhibition concentration (TGI) in test [11], in test [19], in test [13], in test [14], in test [15] and in test [16] was over 100 µM each time.

For `C/C=C/C(C#N)(Cc1ccccc1)OP1(=O)OC(c2ccccc2)C(C)N1C` (centres undefined), the concentration for total growth inhibition (TGI) in [1], in test [2], in test [3], in test [4], in [5] and in test [18] was over 100 µM throughout. Moreover, the concentration for total growth inhibition (TGI) in test [7], in test [9], in test [10], in test [20], in [11] and in test [12] was over 100 µM in each case. The concentration for total growth inhibition (TGI) in [19] is over 100 µM; in [13], over 100 µM; in test [14], over 100 µM; in [15], over 100 µM; in test [16], 78.4 µM; in test [17] it was over 100 µM.

`O=C1Oc2ccccc2C(=O)/C1=C/N1C(=O)N/C(=C\c2cccc(O)c2)C1=O`: the TGI in test [1], in test [2], in test [4], in [5], in test [18] and in test [6] was over 100 µM throughout. Moreover, the TGI in [7], in [8], in test [9], in [10], in [20] and in test [11] was over 100 µM throughout. Besides, the TGI in test [12], in test [19], in test [13], in test [14], in test [15] and in test [16] was over 100 µM throughout.

With `COc1ccc2oc(=O)c3c(c2c1C)OC(C)(C)C=C3`, the TGI in test [1], in test [2], in [3], in test [4], in [5] and in test [7] was over 100 µM throughout. Also, the total growth inhibition concentration (TGI) in test [8], in test [9], in test [10], in test [20], in [11] and in [12] was over 100 µM each time. For the same molecule, the TGI in [19], in test [13], in test [14], in test [15], in test [16] and in test [17] was over 100 µM each time.

As to `Cc1cc(C)n(-c2nc3ccccc3c(=O)n2-c2ccccc2)n1`, the total growth inhibition concentration (TGI) in test [1], in [2], in test [4], in test [6], in test [7] and in [8] was over 100 µM throughout. The concentration for total growth inhibition (TGI) in test [9] is over 100 µM; in [10], over 100 µM; in [20], over 100 µM; in test [11], 14.3 µM; in [12], over 100 µM; in test [19], over 100 µM. The total growth inhibition concentration (TGI) in [13], in test [14], in test [15], in test [16] and in [17] was over 100 µM in each case.

For `C[C@H]1CCCCC[C@@H]2CC(=O)CC2C(=O)CCC(=O)O1` (some centres undefined), the total growth inhibition concentration (TGI) in [1], in [2], in [3], in test [4], in test [5] and in [18] was over 100 µM in each case. The concentration for total growth inhibition (TGI) in test [6], in [7], in test [8], in test [9], in test [10] and in test [12] was over 100 µM throughout. The TGI in test [19], in test [13], in test [14], in [15] and in test [16] was over 100 µM throughout.

With `CN1CCCC1=NC#N`, the concentration for total growth inhibition (TGI) in test [2], in test [3], in test [4], in test [5], in test [6] and in [7] was over 100 µM in each case. In addition, the concentration for total growth inhibition (TGI) in test [8], in test [9], in [10], in test [20], in test [11] and in test [12] was over 100 µM throughout. Besides, the concentration for total growth inhibition (TGI) in [19], in [13], in test [14], in [15], in [16] and in test [17] was over 100 µM in each case.

For the molecule `Cc1cc2c(cc1C)C(=O)C1(C2)Cc2c(ccc(C)c2C)C1=O` (centres undefined), the concentration for total growth inhibition (TGI) in test [1], in test [2], in test [3], in test [4], in test [5] and in test [18] was over 100 µM each time. Also, the total growth inhibition concentration (TGI) in test [6], in test [7], in test [8], in test [9], in [10] and in test [20] was over 100 µM in each case. Further, the TGI in test [11], in [12], in test [19], in test [13], in test [14] and in [15] was over 100 µM each time. The molecule further came in with a TGI in [16] of over 100 µM.

Consider `COc1ccc2oc(=O)c(CC=C(C)C)c(O)c2c1C`, for which the TGI in test [1], in test [2], in test [3], in test [4], in test [5] and in test [7] was over 100 µM throughout. Besides, the concentration for total growth inhibition (TGI) in test [8], in test [9], in test [10], in test [20], in [11] and in test [12] was over 100 µM each time. Moreover, the total growth inhibition concentration (TGI) in test [19], in test [13], in test [14], in test [15], in test [16] and in test [17] was over 100 µM throughout.

For the molecule `COc1ccc(OC)c(-c2nc3ccccc3c(=O)[nH]2)c1`, the concentration for total growth inhibition (TGI) in test [1], in [2], in test [3], in [4], in test [5] and in test [6] was over 100 µM throughout. For the same molecule, the TGI in test [7], in test [8], in test [9], in test [10], in test [20] and in test [11] was over 100 µM each time. Moreover, the TGI in test [12], in [19], in test [14], in test [15], in test [16] and in [17] was over 100 µM in each case.

In the case of `CCOC(=O)CCC(NC(=O)c1ccc(Nc2nc3ccccc3n3cccc23)cc1)C(=O)OCC` (centres undefined), the TGI in test [1] was 72.5 µM; in test [2], over 100 µM; in test [3], 53.6 µM; in [4] it was over 100 µM; in [5], over 100 µM; in test [18], over 100 µM. For the same molecule, the total growth inhibition concentration (TGI) is over 100 µM in test [7]; over 100 µM in test [9]; over 100 µM in test [10]; 39.7 µM in test [20]; over 100 µM in test [11]; over 100 µM in test [12]. Besides, the total growth inhibition concentration (TGI) in test [19] is 44.6 µM; in [13], over 100 µM; in test [15] it was 1.99 µM; in [16], 82.8 µM; in test [17], over 100 µM.

For the molecule `CC1=C(C#N)C2C(=C(N)Oc3ccccc32)C(N)=N1` (centres undefined), the TGI worked out at 69.6 µM in test [1]; 76.7 µM in [2]; 48.4 µM in [3]; 67 µM in [4]; 71.2 µM in test [5]; 77.7 µM in test [6]. In addition, the TGI in test [7] was 62.9 µM; in test [8], 66.2 µM; in test [9] it was 41.4 µM; in [10] it was 49.5 µM; in [20], over 100 µM; in [11], 41.2 µM. Besides, the concentration for total growth inhibition (TGI) in test [19] was over 100 µM; in test [14] it was 72.8 µM; in test [15], 78.2 µM; in [16], over 100 µM; in test [17], 74.2 µM.

As to `CCOC(CI)O[C@@H]1C=C[C@H](OC(C)=O)C1` (some centres undefined), the TGI in [1], in test [3], in test [4], in test [5], in test [6] and in test [7] was over 100 µM throughout. Also, the concentration for total growth inhibition (TGI) in test [8], in test [9], in test [20], in [11], in [12] and in [19] was over 100 µM in each case. For the same molecule, the TGI in test [13], in [14], in test [15], in test [16] and in test [17] was over 100 µM in each case.
